Data reported in US8080535B2, “Hyaluronic acid nutritional supplements and methods of using the same” (Leneau Holdings, LLC, priority 2001, dated 2011).

Key:
[1] = tested on: patients suffering from osteoarthritis; assay: Oral ingestion of hyaluronic acid by patients suffering from osteoarthritis, subjective pain feeling; format: in vivo, human; conditions: of sixty-seven osteoarthritis patients; 1-4 mg oral 1 to 4 times a day
Method: A study involving sixty-seven patients suffering from osteoarthritis was undertaken to determine the effectiveness of oral ingestion of hyaluronic acid. Each patient received 1-4 mg of hyaluronic acid by oral ingestion administration 1 to 4 times a day over periods ranging from about […], during which period the patients' subjective pain feeling was reported. […] Fourteen patients reported no change in the amount of pain they felt.

[2] = tested on: human patients suffering pain and discomfort associated with fibromyalgia; assay: Oral ingestion of hyaluronic acid by patients afflicted with fibromyalgia, subjective pain feeling; format: in vivo
Method: Another study involving thirty-five human patients suffering pain and discomfort associated with fibromyalgia was undertaken to evaluate the effectiveness of oral ingestion of hyaluronic acid. Each patient received about 1 to about 6 mg of hyaluronic acid by oral ingestion administration of concentrate diluted into beverages or food. Over a treatment period of about 1 to about 14 months, the patients' subjective pain feeling was reported. Twenty-one patients reported no pain after hyaluronic acid therapy. Six patients (17.1%) reported some (60%) degree of pain relief. Eight patients reported no change in the amount of pain they felt.

[3] = tested on: human patients suffering pain and discomfort associated with rheumatoid arthritis; assay: Oral ingestion of hyaluronic acid by patients afflicted with rheumatoid arthritis, subjective pain score 0 to 10; format: in vivo; conditions: scale 0 to 10; about 1 mg oral solution for 30 days; average prior to the study 8.47; 15 of seventeen patients responded
Method: Another study involving seventeen human patients suffering pain and discomfort associated with rheumatoid arthritis was undertaken. Each patient received about 1 mg of an oral hyaluronic acid solution for a period of 30 days. Each patient was asked to evaluate his or her subjective pain feeling and report the score on a scale of 0 to 10, wherein 0 means no pain and/or stiffness whatsoever and 10 means worst imaginable pain and/or stiffness. Prior to the start of the study, the patients reported as follows: […]

[4] = of thirty-five fibromyalgia patients, about 1 to about 6 mg oral, about 1 to about 14 months

Substance: hyaluronic acid
- patients reported no change in the amount of pain [1]: Fourteen
- patients reported no pain and increased range of motion [1]: Twenty-nine
- patients reported no pain and increased range of motion (percent of patients) [1]: 43.3%
- patients reported some degree of pain relief and some increased range of motion [1]: Twenty-four
- patients reported some degree of pain relief and some increased range of motion (percent of patients) [1]: 35.8%
- patients reported no change in the amount of pain [2, 4]: Eight
- patients reported no pain after hyaluronic acid therapy [2, 4]: Twenty-one
- patients reported some degree of pain relief [2, 4]: Six
- patients reported some degree of pain relief (percent of patients) [2, 4]: 17.1%
- some (60%) degree of pain relief ([2]; printed in brackets in the sentence on the six patients with some pain relief): 60%
- average subjective pain and/or stiffness score at completion of the 30-day study [3]: 3.47
